Measurements taken from article PMC5663397, “A composite docking approach for the identification and characterization of ectosteric inhibitors of cathepsin K” (PLoS ONE, 2017).
Where “and” joins values, the source holds several entries; their conditions need not be identical. Identical values can stand only once. Entries after “also recorded” stand apart in the source; their conditions may differ. Counter-ions that a name gives are not always drawn. Like-named read-outs stand apart in the source and are kept apart here. Each block holds one compound with its values, some of them ahead of it.

Assays:
CatK [1] = biological target: T1, CatK (Homo sapiens, UniProt P43235); test: CatK collagenase assay (type I collagen degradation, SDS-PAGE); assay type: biochemical
T1 construct: made in house; host or cells: Pichia pastoris
T1 sequence (P43235 115-329): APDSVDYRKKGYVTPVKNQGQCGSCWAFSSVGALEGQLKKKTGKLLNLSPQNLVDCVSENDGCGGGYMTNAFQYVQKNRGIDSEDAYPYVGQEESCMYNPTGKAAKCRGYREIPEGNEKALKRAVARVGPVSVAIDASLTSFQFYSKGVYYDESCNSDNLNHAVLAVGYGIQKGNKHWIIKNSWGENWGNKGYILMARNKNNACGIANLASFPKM
Experimental: The collagenase inhibitory activities of all identified compounds were measured using a collagen degradation assay. Soluble bovine type I collagen (0.6 mg/mL) was incubated with 400 nM recombinant human CatK, in the presence or absence of 200 nM chondroitin 4-sulfate (C4-S) in 100 mM sodium acetate buffer, pH 5.5, containing 2.5 mM dithiothreitol (DTT) (Sigma-Aldrich Canada, Oakville, Ontario, Canada) and 2.5 mM ethylenediametetraacetate (EDTA) (Sigma-Aldrich). In the experiments involving detergent to minimize inhibitor aggregation, 0.001% or 0.005% Triton X-100 was added to the buffer with the inhibitor. The recombinant human CatK was expressed in Pichia pastoris and purified as previously described. Selected compounds identified by molecular docking were ordered from the National Cancer Institute through the Developmental Therapeutics Program (Rockville, MD). All compounds were dissolved in DMSO as a 20 or […] stock. […] After incubation at 28°C for 4 hours, 1 μM of E-64 was added to block the residual activity of CatK.
(§1) Digestion with MMP-1 was performed in 50 mM Tris-HCl, pH 7.4, containing 200 mM NaCl and 5 mM CaCl2 at 28°C for 4 h. Reactions were stopped by adding 25 mM EDTA as previously described. Samples were analyzed using 10% SDS-PAGE gels and stained with Coomassie. The resulting bands of α-collagen chains were quantitatively assessed using ImageJ (Version 1.5) and IC50 graphs were plotted using GraphPad Prism (GraphPad Software, Version 5.0, La Jolla California USA).

human osteoclasts [2] = test: Osteoclast survival: CellTiter-Blue metabolic activity and osteoclast count after TRAcP staining; assay type: cell-based
Experimental: (§2) Osteoclasts were generated from mononuclear cells isolated from human bone marrow tissue (Lonza, Walkersville, MD). The bone marrow cells were centrifuged at 400 g for 5 min and the pellet was re-suspended in 10 mL α-MEM (α-Minimal Essential Media) and layered on 10 ml Ficoll-Plaque media solution. After centrifugation at 500 g for 30 min, the white interface containing the monocytes was harvested and washed twice with α-MEM. Cells were cultured in α-MEM containing 10% FBS and 25 ng/mL M-CSF for 24 hours and then cultured in 25 ng/mL RANKL and 25 ng/mL M-CSF for 7 days. Differentiated osteoclasts (100,000 cells per slice) were then seeded on each bone slice (5.5 mm diameter and 0.4 mm thickness; self-made) in the presence or absence of inhibitors and incubated for 72 hours at 5% CO2 and 37°C with the DMSO concentration at 0.1%. The inhibitor concentration range tested varied between 50 nM to 3 μM.
(§3) To compare the effects of the compounds on cell survival, the metabolic activity of osteoclasts was determined using the CellTiter-Blue Viability Assay (Promega, Madison, WI, USA). Bone slices from each condition (inhibitor-treated and control groups) were fixed in 4% formaldehyde and subsequently stained for tartrate-resistant acid phosphatase (TRAcP) activity (Acid Phosphatase, Leukocyte (TRAP) Kit; Sigma-Aldrich). Aliquots from cell culture media were used to determine the CTx-I concentration (MyBiosource ELISA kit, San Diego, CA). CTx-I is a CatK-specific C-terminal cleavage product of triple helical type I collagen. The total number of osteoclasts per bone slice was determined after TRAcP staining. Cells with ≥2 nuclei were counted as osteoclasts. After 72 h, bone slices from each condition were incubated in filtered water for cell lysis and cells were removed using a cotton stick. Subsequently the resorption cavities were stained with toluidine blue and observed by light microscopy. The number of resorption events and eroded bone surface area were determined as previously described. All light microscopic analyses were performed using a Nikon Eclipse LV100 microscope and a Nikon Eclipse Ci microscope.

CatK [3] = biological target: T1, CatK; test: Z-Phe-Arg-MCA cleavage assay with CatK; assay type: biochemical; details: 100 μM inhibitor, 5 nM CatK, 5 μM substrate, pH 5.5
Experimental: (§4) The enzymatic activity of CatK was monitored by measuring the rate of release of the fluorogenic group, amino-methyl coumarin at an excitation wavelength of 380 nm and an emission wavelength of 450 nm using a Molecular Devices SpectraMax Gemini spectrofluorometer. Inhibitors were added prior to measurement of enzyme activity. The assays were performed at 25°C at a fixed enzyme concentrations (5 nM) and substrate concentration (5 μM) in 100 mM sodium acetate buffer, pH 5.5, containing 2.5 mM DTT and 2.5 mM EDTA. Z-Phe-Arg-MCA hydrolysis with trypsin was carried out in 50 mM Tris-HCl, pH 8.8 at 10 nM enzyme concentration.

human osteoclasts [4] = test: Human osteoclast bone resorption assay on bone slices; assay type: cell-based; details: for IC50: human osteoclasts on bone slices, read-out: IC50 for inhibition of trench eroded surface per bone surface (bone resorption)
Experimental: as §2, §3

MMP-1 [5] = biological target: T2, MMP-1 (Homo sapiens, UniProt P03956); test: Gelatin degradation assay with MMP-1; assay type: biochemical; details: 50 μM inhibitor, 10 nM MMP-1
T2 sequence (P03956 100-469): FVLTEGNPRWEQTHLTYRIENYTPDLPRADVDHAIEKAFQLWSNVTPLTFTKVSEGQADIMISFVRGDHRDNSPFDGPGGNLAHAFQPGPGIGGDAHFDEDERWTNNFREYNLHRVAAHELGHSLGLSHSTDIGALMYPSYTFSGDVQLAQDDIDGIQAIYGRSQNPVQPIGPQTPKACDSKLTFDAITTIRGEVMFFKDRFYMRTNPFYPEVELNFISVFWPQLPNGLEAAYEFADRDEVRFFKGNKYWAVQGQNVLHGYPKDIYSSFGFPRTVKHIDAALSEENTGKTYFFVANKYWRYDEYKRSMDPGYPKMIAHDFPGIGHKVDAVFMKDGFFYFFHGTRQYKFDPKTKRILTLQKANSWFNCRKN
Experimental: Gelatin (0.6 mg/mL) degradation assays were performed in the same manner as the collagen degradation experiments with 10 nM enzyme and were incubated at 37°C for one hour at the appropriate pH values for the individual proteases (CatK, pH 5.5; MMP-1, pH 7.4; trypsin, pH 8.8).

MMP-1 [6] = biological target: T2, MMP-1; test: Collagen digestion with MMP-1; assay type: biochemical; details: 50 μM inhibitor, 400 nM MMP-1
Experimental: as §1

Yeast = system: Yeast; design: method as in earlier work; details: cited from earlier work
trypsin = test: Z-Phe-Arg-MCA hydrolysis with trypsin; assay type: biochemical; details: 50 μM (5,000-times molar excess)
Experimental: as §4, with “Evaluation of a potential active site inhibition of the compounds was performed using the fluorogenic Benzyloxycarbonyl-Phe-Arg-7-amido-4-methylcoumarin (Z-Phe-Arg-MCA) substrate (Bachem Americas, Inc, Torrance, California, USA) as previously described. The enzymatic” for “The enzymatic”

human osteoclasts [7] = details: cited from earlier work
ovariectomiced mice = system: ovariectomiced mice; design: method as in PMID 28745432; details: cited from earlier work
[8] = 400 nM CatK, soluble bovine type I collagen 0.6 mg/mL, pH 5.5, 28°C, 4 h, read-out: Collagenase IC50
[9] = 1 μM inhibitor, 72 h, versus untreated

SMILES: CCc1cc2nc3c(=O)[nH]c(=O)nc-3n(CCN(CCO)CCO)c2cc1CC [compound 1, 10-[2-[bis(2-hydroxyethyl)amino]ethyl]-7,8-diethylbenzo[γ]pteridine-2,4-dione]
IC50 (CatK [1]; [8]): < 20 µM and 4.7 µM and ~5 µM
IC50 (CatK [1]; Collagenase IC50 with 0.005% Triton X-100, in the presence of detergent, 0.005% Triton X-100): 5.1 ± 1 µM
Collagenase IC50 with 0.005% Triton X-100 (CatK [1]; in the presence of detergent, 0.005% Triton X-100): not significantly different
Metabolic activity of osteoclasts (human osteoclasts [2]; CellTiter-Blue, compared with untreated cells): no significant differences
number of osteoclasts (human osteoclasts [2]; TRAcP staining, compared with untreated cells): no significant differences
cell toxicity (human osteoclasts [2]; osteoclast bone resorption assays): no cell toxicity effects
inhibition at 100 µM (CatK [3]): 9.5 ± 2.6%
Number of trenches (human osteoclasts [4]; [9]): significant reduction
percentage of eroded surface area / total eroded surface (human osteoclasts [4]; [9]): very effective in reducing the total eroded surface; also recorded: significant reduction
IC50 (human osteoclasts [4]; Homo sapiens, Osteoclast, 72 h, 72 h): ~0.3 µM
IC50 (human osteoclasts [4]; 72 h): 0.312 ± 0.063 µM
overall potency, times lower than odanacatib (human osteoclasts [4]; osteoclast resorption assay, versus odanacatib): 15–20 times
inhibitory activity for the gelatinase activity of MMP-1 (MMP-1 [5]): no inhibitory activity; also recorded: did not show inhibition
inhibitory activity towards the collagenase activity of MMP-1 (MMP-1 [6]): no inhibitory activity; also recorded: did not show inhibition
activity in NCI Yeast Anticancer Drug Screen (Yeast): active

SMILES: CN(C)CCNc1ccc2ncn3c4ccc(O)cc4c(=O)c1c23 [compound 2, 2-((8-hydroxy-6-oxo-6H-imidazo[4,5,1-de]acridin-5-yl)amino)-N,N-dimethylethanaminium]
IC50 (CatK [1]; [8]): < 20 µM and 7.6 µM
inhibition at 100 µM (CatK [3]): 6.1 ± 3.9%

SMILES: CCc1nc2ccc(NCCN(C)C)c3c(=O)c4ccccc4n1c23 [compound 4, 5-(2-(dimethylamino)ethylamino)-1-ethyl-6H-imidazo[4,5,1-de]acridin-6-one]
IC50 (CatK [1]; [8]): < 20 µM and 9.9 µM
inhibition at 100 µM (CatK [3]): 2.3 ± 0.9%

SMILES: CCN(CC)CCNc1ccc2ncn3c4ccccc4c(=O)c1c23 [compound 5, 5-{[2-(diethylamino)ethyl]amino}-6H-imidazo[4,5,1-de]acridin-6-one hydrochloride (1:1)]
IC50 (CatK [1]; [8]): < 20 µM and 13 µM
inhibition at 100 µM (CatK [3]): 3.7 ± 0.7%

SMILES: CCN(CC)CC1=C/C(=N/NC2=C3C=CC(=O)C(NNc4ccc(O)c(CN(CC)CC)c4)=C3C=CC2=O)C=CC1=O.Cl [compound 9, 1-[2-[3-(diethylaminomethyl)-4-hydroxyphenyl]hydrazinyl]-5-[(2E)-2-[3-(diethylaminomethyl)-4-oxocyclohexa-2,5-dien-1-ylidene]hydrazinyl]naphthalene-2,6-dione hydrochloride]
IC50 (CatK [1]; [8]): < 20 µM
inhibition at 100 µM (CatK [3]): 3.2 ± 0.8%
activity in NCI Yeast Anticancer Drug Screen (Yeast): active

SMILES: CC(C)(F)C[C@H](N[C@@H](c1ccc(-c2ccc(S(C)(=O)=O)cc2)cc1)C(F)(F)F)C(=O)NC1(C#N)CC1 [odanacatib]
IC50 (human osteoclasts [7]; read-out: IC50 for human-osteoclast-mediated bone resorption): 0.0146 µM

SMILES: Cc1c(S(=O)(=O)O)oc2c1C(=O)C(=O)c1c-2ccc2c1CCCC2(C)C [tanshinone IIA sulfonate]
efficacy in ovariectomiced mice (ovariectomiced mice): showed efficacy
IC50 (human osteoclasts [7]; read-out: IC50 in osteoclast resorption assay): 0.24 µM

More lines, main results first:

IC50 (CatK [1]; [8]): ~35 µM and 34.8 µM
inhibition at 100 µM (CatK [3]): 11.5 ± 2.6%
SMILES: Cc1c2c(c(O)c3c(O)cccc13)C(=O)C1(O)C(=O)C(C(N)=O)C(O)C(N(C)C)C1C2 (stereo not shown) [compound 6, 4-(dimethylamino)-3,10,11,12a-tetrahydroxy-6-methyl-1,12-dioxo-3,4,4a,5-tetrahydro-2H-tetracene-2-carboxamide]
inhibition of Z-Phe-Arg-MCA degradation by trypsin (trypsin): 60%

IC50 (CatK [1]; [8]): 12.8 µM and < 20 µM
inhibition at 100 µM (CatK [3]): 7.2 ± 3.6%
SMILES: O=C(Nc1cccc(C(=O)Nc2cccc(C3=NCCN3)c2)c1)Nc1cccc(C(=O)Nc2cccc(C3=NCCN3)c2)c1 [compound 8, N-[3-(4,5-dihydro-1H-imidazol-2-yl)phenyl]-3-[[3-[[3-(4,5-dihydro-1H-imidazol-2-yl)phenyl]carbamoyl]phenyl]carbamoylamino]benzamide hydrochloride]

IC50 (CatK [1]; [8]): 89 µM
SMILES: CC1CN=C(c2cccc(NC(=O)c3ccc(C(=O)Nc4cccc(C5=NCC(C)N5)c4)c(N)c3)c2)N1 (stereo not shown) [compound 80116]

IC50 (CatK [1]; [8]): 88 µM
SMILES: CSCCC(NCC(N)Cc1ccc2ccccc2c1)C(=O)NCc1cccc(C(=O)NC(CNC(CC(C)C)C(=O)O)Cc2ccccc2)c1 (stereo not shown) [compound 719315]
